{
  "source": "patent US5830897A",
  "about": "“α- and β-amino acid hydroxyethylamino sulfonamides useful as retroviral protease inhibitors” (G. D. Searle & Co., priority 1995, dated 1998)",
  "key": {"HIV protease": {"biological_target": "T1, HIV protease (Human immunodeficiency virus type 1 group M subtype B, UniProt P04585)", "T1 construct": "HIV protease is diluted in the assay buffer to a final enzyme concentration of 12.3 nanomolar, based on a molecular weight of 10,780", "experiment": "biochemical", "description": "The enzyme method is described below. […] The positive control is MVT-101 (Miller, M. et al, Science, 246, 1149 (1989)] The assay conditions are as follows:\nAssay buffer: 20 mM sodium phosphate, pH 6.4\nThe above described substrate is dissolved in DMSO, then diluted 10 fold in assay buffer. Final substrate concentration in the assay is 80 μM.\nThe final concentration of DMSO is 14% and the final concentration of glycerol is 18%. The test compound is dissolved in DMSO and diluted in DMSO to 10× the test concentration; 10 μl of the enzyme preparation is added, the materials mixed and then the mixture is incubated at ambient temperature for 15 minutes. The enzyme reaction is initiated by the addition of 40 μl of substrate. The increase in fluorescence is monitored at 4 time points (0, 8, 16 and 24 minutes) at ambient temperature. Each assay is carried out in duplicate wells."}, "[1]": {"experiment": "Intrinsic toxicity of test compound in CEM cells without virus (MTT)", "type": "cell-based", "settings": "human, Table 16, read-out: TD50 (the source's name)", "text": "Methods, 20, 309-321 (1988)."}, "[2]": {"settings": "Table 15A, second part (Ex., Table, Entry)"}, "[3]": {"settings": "Table 15A, @ 1 uM, read-out: % inhib"}, "[4]": {"settings": "Table 15A, @ 10 uM, read-out: % inhib"}, "[5]": {"settings": "Table 5B, @ 1 μM, read-out: % inhibition"}},
  "note": "Like-named read-outs stand apart in the source and are kept apart here.",
  "data": [
    {"smiles": "CC(C)CCN(C[C@@H](O)[C@H](Cc1ccccc1)NC(=O)OCc1ccccc1)S(=O)(=O)c1ccccc1", "note": "[Table 1A Entry 39]", "values": [
      {"measurement": "IC50", "setting": "HIV protease; [2]", "result": 16, "unit": "nM"}
    ]},
    {"smiles": "CC(C)CCN(C[C@@H](O)[C@H](Cc1ccccc1)NC(=O)OCc1ccccc1)S(C)(=O)=O", "note": "[Table 1A Entry 41]", "values": [
      {"measurement": "inhibition at 1 µM", "setting": "HIV protease; [3]", "result": 24, "unit": "%"},
      {"measurement": "inhibition at 10 µM", "setting": "HIV protease; [4]", "result": 74, "unit": "%"}
    ]},
    {"smiles": "CC(C)CCN(C[C@@H](O)[C@H](Cc1ccccc1)NC(=O)OCc1ccccc1)S(=O)(=O)C(F)(F)F", "note": "[Table 1A Entry 50]", "values": [
      {"measurement": "inhibition at 1 µM", "setting": "HIV protease; [3]", "result": 42, "unit": "%"},
      {"measurement": "inhibition at 10 µM", "setting": "HIV protease; [4]", "result": 89, "unit": "%"}
    ]},
    {"smiles": "CC(C)CN(C[C@@H](O)[C@H](Cc1ccccc1)NC(=O)OCc1ccccc1)S(C)(=O)=O", "note": "[Table 1A Entry 51]", "values": [
      {"measurement": "inhibition at 1 µM", "setting": "HIV protease; [3]", "result": 31, "unit": "%"},
      {"measurement": "inhibition at 10 µM", "setting": "HIV protease; [4]", "result": 76, "unit": "%"}
    ]},
    {"smiles": "CC(C)CCN(C[C@@H](O)[C@H](Cc1ccccc1)NC(=O)OCc1ccccc1)S(=O)(=O)CCl", "note": "[Table 1A Entry 52]", "values": [
      {"measurement": "inhibition at 1 µM", "setting": "HIV protease; [3]", "result": 39, "unit": "%"},
      {"measurement": "inhibition at 10 µM", "setting": "HIV protease; [4]", "result": 81, "unit": "%"}
    ]},
    {"smiles": "CC(C)CCN(C[C@@H](O)[C@H](Cc1ccccc1)NC(=O)OCc1ccccc1)S(=O)(=O)c1ccc(F)cc1", "note": "[Table 1a Entry 1]", "values": [
      {"measurement": "IC50", "setting": "HIV protease; [2]", "result": 11, "unit": "nM"}
    ]},
    {"smiles": "CC(C)CCN(C[C@@H](O)[C@H](Cc1ccccc1)NC(=O)OCc1ccccc1)S(=O)(=O)c1ccccc1[N+](=O)[O-]", "note": "[Table 1a Entry 3]", "values": [
      {"measurement": "inhibition at 1 µM", "setting": "HIV protease; [3]", "result": 38, "unit": "%"},
      {"measurement": "inhibition at 10 µM", "setting": "HIV protease; [4]", "result": 79, "unit": "%"}
    ]},
    {"smiles": "CC(C)CCN(C[C@@H](O)[C@H](Cc1ccccc1)NC(=O)OCc1ccccc1)S(=O)(=O)c1ccc2ccccc2c1", "note": "[Table 1a Entry 4]", "values": [
      {"measurement": "IC50", "setting": "HIV protease; [2]", "result": 16, "unit": "nM"}
    ]},
    {"smiles": "CC(C)CCN(C[C@@H](O)[C@H](Cc1ccccc1)NC(=O)OCc1ccccc1)S(=O)(=O)Cc1ccccc1", "note": "[Table 1a Entry 6]", "values": [
      {"measurement": "inhibition at 10 µM", "setting": "HIV protease; [4]", "result": 36, "unit": "%"}
    ]},
    {"smiles": "CC(C)CN(C[C@@H](O)[C@H](Cc1ccccc1)NC(=O)OCc1ccccc1)S(=O)(=O)c1ccc(F)cc1", "note": "[Table 1a Entry 7]", "values": [
      {"measurement": "IC50", "setting": "HIV protease; [2]", "result": 9.6, "unit": "nM"}
    ]},
    {"smiles": "CC(C)CCN(C[C@@H](O)[C@H](Cc1ccccc1)NC(=O)C(NC(=O)CN(C)C)C(C)(C)C)S(C)(=O)=O", "note": "(some centres unmarked) [Table 3 Entry 2]", "values": [
      {"measurement": "inhibition at 0.1 µM", "setting": "HIV protease; Table 15A, @ 0.1 uM", "result": 38, "unit": "%"},
      {"measurement": "inhibition at 1 µM", "setting": "HIV protease; [3]", "result": 90, "unit": "%"}
    ]},
    {"smiles": "COc1ccc(S(=O)(=O)N(CC(C)C)CC(O)C(Cc2ccccc2)NC(=O)c2ccc3[nH]ccc3c2)cc1", "note": "(centres unmarked) [Table 5A Entry 5]", "values": [
      {"measurement": "IC50", "setting": "HIV protease; Table 5B", "result": 26, "unit": "nM"}
    ]},
    {"smiles": "COc1ccc(S(=O)(=O)N(CC(C)C)CC(O)C(Cc2ccccc2)NC(=O)c2ccccc2S(C)(=O)=O)cc1", "note": "(centres unmarked) [Table 5A Entry 17]", "values": [
      {"measurement": "inhibition at 10 µM", "setting": "HIV protease; Table 5B, @ 10 μM, read-out: % inhibition", "result": 59, "unit": "%"}
    ]},
    {"smiles": "COc1ccc(S(=O)(=O)N(CC(C)C)CC(O)C(Cc2ccccc2)NC(=O)c2ccccc2CS(C)(=O)=O)cc1", "note": "(centres unmarked) [Table 5A Entry 20]", "values": [
      {"measurement": "inhibition at 1 µM", "setting": "HIV protease; [5]", "result": 85, "unit": "%"}
    ]},
    {"smiles": "COc1ccc(S(=O)(=O)N(CC(C)C)CC(O)C(Cc2ccccc2)NC(=O)c2ccc(CS(C)(=O)=O)cc2)cc1", "note": "(centres unmarked) [Table 5A Entry 22]", "values": [
      {"measurement": "inhibition at 1 µM", "setting": "HIV protease; [5]", "result": 63, "unit": "%"}
    ]},
    {"smiles": "COc1ccc(S(=O)(=O)N(CC(C)C)CC(O)C(Cc2ccccc2)NC(=O)c2ccccc2OC)cc1", "note": "(centres unmarked) [Table 5A Entry 29]", "values": [
      {"measurement": "IC50", "setting": "HIV protease; Table 5B", "result": 190, "unit": "nM"}
    ]},
    {"smiles": "CC(C)CCN(C[C@@H](O)[C@H](Cc1ccccc1)NC(=O)C(N)C(C)(C)C)S(=O)(=O)c1ccccc1", "note": "(some centres unmarked) [Table 11 Entry 1]", "values": [
      {"measurement": "IC50", "setting": "HIV protease; [2]", "result": 130, "unit": "nM"}
    ]},
    {"smiles": "CC(C)CCN(C[C@@H](O)[C@H](Cc1ccccc1)NC(=O)[C@@H](NC(=O)CBr)C(C)(C)C)S(=O)(=O)c1ccccc1", "note": "[Table 12 Entry 10]", "values": [
      {"measurement": "IC50", "setting": "HIV protease; [2]", "result": 3.3, "unit": "nM"}
    ]},
    {"smiles": "CC(C)CCN(C[C@@H](O)[C@H](Cc1ccccc1)NC(=O)[C@H](CC(N)=O)NC(=O)c1ccc2ccccc2n1)S(C)(=O)=O", "note": "[Table 15A Entry 4]", "values": [
      {"measurement": "IC50", "setting": "HIV protease; Table 15A, first part", "result": 27, "unit": "nM"}
    ]},
    {"smiles": "CC(C)CCN(C[C@@H](O)[C@H](Cc1ccccc1)NC(=O)[C@H](CC(N)=O)NC(=O)c1ccc2ccccc2n1)S(C)(=O)=O", "note": "[Table 16 Entry 4]", "values": [
      {"measurement": "IC50", "setting": "HIV protease; Table 16, enzyme assay", "result": 27, "unit": "nM"}
    ]},
    {"smiles": "CC(C)CCN(C[C@@H](O)[C@H](Cc1ccccc1)NC(=O)[C@@H](NC(=O)CN(C)C)C(C)(C)C)S(C)(=O)=O", "note": "[Table 16 Entry 6]", "values": [
      {"measurement": "CC50", "setting": "[1]", "result": 425, "unit": "nM"}
    ]},
    {"smiles": "CNC(=O)C[C@H](NC(=O)c1ccc2ccccc2n1)C(=O)N[C@@H](Cc1ccccc1)[C@H](O)CN(CCC(C)C)S(=O)(=O)c1ccccc1", "note": "[Table 16 Entry 7]", "values": [
      {"measurement": "CC50", "setting": "[1]", "result": 39, "unit": "nM"}
    ]},
    {"smiles": "CC(C)CCN(C[C@@H](O)[C@H](Cc1ccccc1)NC(=O)c1ccccc1)S(=O)(=O)c1ccccc1", "note": "[Table 16 Entry 8]", "values": [
      {"measurement": "CC50", "setting": "[1]", "result": 24, "unit": "nM"}
    ]},
    {"smiles": "CCC(C)[C@H](NC(=O)CN(C)C)C(=O)N[C@@H](Cc1ccccc1)[C@H](O)CN(CCC(C)C)S(=O)(=O)c1ccccc1", "note": "(some centres unmarked) [Table 16 Entry 14]", "values": [
      {"measurement": "CC50", "setting": "[1]", "result": 55000, "unit": "nM"}
    ]},
    {"smiles": "COc1ccc(S(=O)(=O)N(CC(C)C)C[C@@H](O)[C@H](Cc2ccccc2)NC(=O)c2ccccc2)cc1", "note": "[Table 16 Entry 28]", "values": [
      {"measurement": "IC50", "setting": "HIV protease; Table 16, enzyme assay", "result": 14, "unit": "nM"}
    ]},
    {"smiles": "COc1ccc(S(=O)(=O)N(CC(C)C)C[C@@H](O)[C@H](Cc2ccccc2)NC(=O)c2ccccc2Cl)cc1", "note": "[Table 16 Entry 30]", "values": [
      {"measurement": "IC50", "setting": "HIV protease; Table 16, enzyme assay", "result": 6, "unit": "nM"}
    ]},
    {"smiles": "CCc1ccccc1C(=O)N[C@@H](Cc1ccccc1)[C@H](O)CN(CC(C)C)S(=O)(=O)c1ccc(OC)cc1", "note": "[Table 16 Entry 31]", "values": [
      {"measurement": "IC50", "setting": "HIV protease; Table 16, enzyme assay", "result": 10, "unit": "nM"}
    ]},
    {"smiles": "CC(C)CCN(C[C@@H](O)[C@H](Cc1ccccc1)NC(=O)OCc1ccccc1)S(=O)(=O)c1ccccc1", "note": "[drawing 314]", "values": [
      {"measurement": "IC50", "setting": "HIV protease; Table 15A, first part", "result": 16, "unit": "nM"}
    ]},
    {"smiles": "CC(C)CCN(C[C@@H](O)[C@H](Cc1ccccc1)NC(=O)OCc1ccccc1)S(=O)(=O)c1ccccc1", "note": "[drawing 326]", "values": [
      {"measurement": "IC50", "setting": "HIV protease; Table 16, enzyme assay", "result": 16, "unit": "nM"}
    ]}
  ]
}
